Patent US12568967B2, “Compositions comprising pyridine carboxylate herbicides with synthetic auxin herbicides or auxin transport inhibitors” (priority 2018, dated 2026)

Columns and labels:
[1] = tested on: Papaver rhoeas (corn poppy), herbicide-resistant (PAPRH-R); assay: Greenhouse postemergence trial PAPRH-R; type: in vivo; conditions: for % visual injury: c1-3 Compound A 7.5/10/15
[2] = tested on: Papaver rhoeas (corn poppy, PAPRH); assay: Greenhouse postemergence trial PAPRH; type: in vivo; conditions: for % visual injury: c1-3 Compound A 7.5/10/15
Protocol: (§1) Seeds of the desired test plant species were planted in a 90:10% v/v (volume/volume) mixture of PRO-MIX® BX (Premier Tech Horticulture, Quakertown, PA, USA) and PROFILE® GREENS GRADE™ (Profile Products LLC, Buffalo Grove, IL, USA) planting mixture, which typically has a pH of 5.2 to 6.2 and an organic matter content of at least 50 percent, in plastic pots with a surface area of 103.2 square centimeters (cm^2). […] The plants were grown for 7-36 days (d) in a greenhouse with an approximate 14-hour (h) photo-period which was maintained at about 23° C. during the day and 22° C. during the night. Nutrients and water were added on a regular basis and supplemental lighting was provided with overhead metal halide 1000-Watt lamps as necessary. The plants were employed for testing when they reached the second or third true leaf stage.
(§2) Emulsifiable concentrates of each of each pyridine carboxylate herbicide (Compound A or Compound B) were prepared at 100 grams acid equivalent per liter (g ae/L). The emulsifiable concentrates also included a safener, cloquintocet-mexyl, at 120 grams active ingredient per liter (g ai/L), unless otherwise noted below. An aliquot of each emulsifiable concentrate was placed in a 25 mL glass vial and diluted with an aqueous mixture of 1.25% (v/v) ACTIROB® B esterified rapeseed oil (Bayer Crop Science, Research Triangle Park, NC, USA) or MSO® Concentrate with LECI-TECH® methylated soybean oil (Loveland Products, Loveland, CO, USA) to obtain concentrated stock solutions at the highest application rate for each herbicide, based upon a 12 milliliter (mL) application volume at a rate of 187 liters per hectare (L/ha). The concentrated stock solutions were further diluted with an aqueous mixture of 1.25% v/v ACTIROB® B or MSO® Concentrate with LECI-TECH® to obtain stock solutions at reduced application rates for each herbicide. Spray solutions of the herbicide combinations (Compound A or Compound B plus synthetic auxin herbicide or auxin transport inhibitor) were prepared by adding weighed amounts or aliquots of the synthetic auxin herbicide or auxin transport inhibitor to the stock solutions of Compound A or Compound B to form 12-mL spray solutions in two-way combinations.
(§3) The spray solutions were applied to the plant material with an overhead Mandel track sprayer equipped with 8002E nozzles calibrated to deliver 187 L/ha over an application area of 0.503 square meters (m^2) at a spray height of 18 inches (43 centimeters (cm)) above the average plant canopy. Control plants were sprayed in the same manner with the solvent blank. All pyridine carboxylate herbicide (component a) application rates are given as “g ae/ha” and all synthetic auxin herbicide or auxin transport inhibitor (component b) application rates are given as “g ai/ha.”
(§4) The treated plants and control plants were placed in a greenhouse as described above and watered by sub-irrigation to prevent wash-off of the test compounds. After 20-22 d, the condition of the test plants as compared with that of the control plants was determined visually and scored on a scale of 0 to 100 percent where 0 corresponds to no injury and 100 corresponds to complete kill.

[3] = tested on: Capsella bursa-pastoris (shepherd's purse, CAPBP); assay: Greenhouse postemergence trial CAPBP; type: in vivo; conditions: for % visual injury: c1-3 Compound A 7.5/10/15
[4] = tested on: Stellaria media (chickweed, STEME); assay: Greenhouse postemergence trial STEME; type: in vivo; conditions: for % visual injury: c1-3 Compound A 7.5/10/15
[5] = tested on: Matricaria inodora (false chamomile, MATIN); assay: Greenhouse postemergence trial MATIN; type: in vivo; conditions: for % visual injury: c1-3 Compound A 7.5/10/15
Protocol: as §1, §2, §3, §4

[6] = tested on: Veronica hederifolia (ivyleaf speedwell, VERHE); assay: Greenhouse postemergence trial VERHE; type: in vivo; conditions: for % visual injury: c1-3 Compound A 7.5/10/15
[7] = tested on: Viola tricolor (wild pansy, VIOTR); assay: Greenhouse postemergence trial VIOTR; conditions: for % visual injury: c1-3 Compound A 7.5/10/15;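 for all read-outs here: greenhouse plants sprayed at second to third true leaf stage, injury rated visually after 20-22 d against solvent-blank sprayed controls, 0 meaning no injury and 100 complete kill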
[8] = tested on: Lamium purpureum (purple deadnettle, LAMPU); assay: Greenhouse postemergence trial LAMPU; conditions: for % visual injury: c1-3 Compound A 7.5/10/15
Protocol: The plants were grown for 7-36 days (d) in a greenhouse with an approximate 14-hour (h) photo-period which was maintained at about 23° C. during the day and 22° C. during the night. Nutrients and water were added on a regular basis and supplemental lighting was provided with overhead metal halide 1000-Watt lamps as necessary. The plants were employed for testing when they reached the second or third true leaf stage.
The emulsifiable concentrates also included a safener, cloquintocet-mexyl, at 120 grams active ingredient per liter (g ai/L), unless otherwise noted below.
Control plants were sprayed in the same manner with the solvent blank. All pyridine carboxylate herbicide (component a) application rates are given as “g ae/ha” and all synthetic auxin herbicide or auxin transport inhibitor (component b) application rates are given as “g ai/ha.”
as §4

[9] = tested on: Galium aparine (cleavers, GALAP); assay: Greenhouse postemergence trial GALAP; type: in vivo; conditions: c1-3 Compound A 7.5/10/15
Protocol: as §1, §2, §3, §4

[10] = tested on: Triticum aestivum (spring wheat, TRZAS); type: in vivo
[11] = tested on: Sinapis arvensis (wild mustard, SINAR); assay: Greenhouse postemergence trial SINAR; type: in vivo; conditions: Mutarda arvensis, post-emergence; SINAR; Halauxifen-methyl 3 g/ha; read-out: % visual injury Obs
[12] = tested on: Matricaria discoidea (pineapple weed, MATMT); assay: Greenhouse postemergence trial MATMT; type: in vivo
[13] = tested on: Veronica persica (bird's-eye speedwell, VERPE); assay: Greenhouse postemergence trial VERPE; type: in vivo
Protocol: as §1, §2, §3, §4

[14] = tested on: Cirsium arvense (Canadian thistle, CIRAR); assay: Greenhouse postemergence trial CIRAR; type: in vivo; conditions: Cirsium arvense, post-emergence; CIRAR; Halauxifen-methyl 3 g/ha; read-out: % visual injury Obs
[15] = tested on: Hordeum vulgare (winter barley, HORVW); assay: Greenhouse postemergence crop phytotoxicity HORVW; type: in vivo
Protocol: as §1, §2, §3, §4

[16] = tested on: Salsola kali (Russian thistle, SASKR); assay: Greenhouse postemergence trial SASKR; type: in vivo; conditions: Salsola kali, post-emergence; SASKR; Halauxifen-methyl 3 g/ha; read-out: % visual injury Obs;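 note: greenhouse plants sprayed at second or third true leaf stage, injury rated by eye after 20-22 d against solvent-blank controls, 0 meaning no injury, 100 complete kill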
[17] = tested on: Hordeum vulgare (spring barley, HORVS); type: in vivo
Protocol: as §1, §2, §3, §4

[18] = tested on: Matricaria chamomilla (wild chamomile, MATCH); assay: Greenhouse postemergence trial MATCH; type: in vivo; conditions: Matricaria chamomilla, post-emergence; MATCH; Halauxifen-methyl 3 g/ha; read-out: % visual injury Obs;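 note: greenhouse plants sprayed at second to third true leaf stage, injury rated by eye 20-22 d later versus solvent-blank controls on 0–100 scale, 0 no injury, 100 complete kill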
[19] = tested on: Cyanus segetum (cornflower, CENCY); assay: Greenhouse postemergence trial CENCY; type: in vivo
[20] = tested on: Brassica napus (winter rape, BRSNW); assay: Greenhouse postemergence trial BRSNW; type: in vivo; conditions: Brassica napus, post-emergence, BRSNW; Halauxifen-methyl 3 g/ha; read-out: % visual injury Obs
[21] = tested on: Polygonum convolvulus (wild buckwheat, POLCO); assay: Greenhouse postemergence trial POLCO; type: in vivo; conditions: Fallopia convolvulus, post-emergence; POLCO; Halauxifen-methyl 3 g/ha; read-out: % visual injury Obs
[22] = tested on: Anthemis arvensis (field chamomile, ANTAR); assay: Greenhouse postemergence trial ANTAR; type: in vivo
[23] = tested on: Kochia scoparia (kochia, KCHSC); assay: Greenhouse postemergence trial KCHSC; type: in vivo; conditions: Bassia scoparia, post-emergence; KCHSC; Halauxifen-methyl 3 g/ha; read-out: % visual injury Obs
[24] = tested on: Triticum aestivum (winter wheat, TRZAW); assay: Greenhouse postemergence crop phytotoxicity TRZAW; type: in vivo
[25] = tested on: Viola arvensis (field violet, VIOAR); assay: Greenhouse postemergence trial VIOAR; type: in vivo
[26] = c4-6 Clopyralid 30/60/120, c7-9, c10-12, c13-15 A 7.5/10/15 + Clopyralid 30, 60, 120 g/ha
[27] = c1-3 Compound A 7.5/10/15, c4 Halauxifen-methyl 6, c5-7 A 7.5/10/15 + Halauxifen-methyl 6 g/ha
[28] = c4 Halauxifen-methyl 6, c5-7 A 7.5/10/15 + Halauxifen-methyl 6 g/ha

O=C(O)c1nc(Cl)ccc1Cl [Clopyralid, clopyralid, reference compound]
% visual injury [1, 26]: 0%
% visual injury [2, 26]: 0%
% visual injury [3, 26]: 0%
% visual injury [4, 26]: 0%
% visual injury [5, 26]: 35%
% visual injury [6, 26]: 0%
% visual injury [7, 26]: 0%
% visual injury [8, 26]: 0%
% visual injury [9, 26]: 0%

COC(=O)c1nc(-c2ccc(Cl)c(OC)c2F)cc(N)c1Cl [Halauxifen-methyl, halauxifen-methyl, reference compound]
% visual injury Obs ([10]; TRZAS, Halauxifen-methyl 3 g/ha): 0%
% visual injury (crop phytotoxicity) [10, 27]: 0%
pest or weed control at 3 g/ha ([1]; Papaver rhoeas, post-emergence, PAPRH-R, Halauxifen-methyl 3 g/ha, read-out: % visual injury Obs): 65%
% visual injury [1, 28]: 60%
pest or weed control at 3 g/ha [11]: 70%
pest or weed control at 3 g/ha ([12]; Matricaria discoidea, post-emergence, MATMT, Halauxifen-methyl 3 g/ha, read-out: % visual injury Obs): 0%
% visual injury [12, 27]: 65%
pest or weed control at 3 g/ha ([2]; Papaver rhoeas, post-emergence, PAPRH, Halauxifen-methyl 3 g/ha, read-out: % visual injury Obs): 70%
% visual injury [2, 28]: 70%
pest or weed control at 3 g/ha ([13]; Veronica persica, post-emergence, VERVE, Halauxifen-methyl 3 g/ha, read-out: % visual injury Obs): 20%
% visual injury [13, 27]: 10%
pest or weed control at 3 g/ha [14]: 65%
% visual injury Obs ([15]; HORVW, Halauxifen-methyl 3 g/ha): 0%
% visual injury (crop phytotoxicity) [15, 27]: 0%
pest or weed control at 3 g/ha ([3]; Capsella bursa-pastoris, post-emergence, CAPBP, Halauxifen-methyl 3 g/ha, read-out: % visual injury Obs): 75%
% visual injury [3, 28]: 70%
pest or weed control at 3 g/ha ([4]; Stellaria media, post-emergence, STEME, Halauxifen-methyl 3 g/ha, read-out: % visual injury Obs): 30%
% visual injury [4, 28]: 65%
pest or weed control at 3 g/ha ([5]; Tripleurospermum inodorum, post-emergence, MATIN, Halauxifen-methyl 3 g/ha, read-out: % visual injury Obs): 0%
% visual injury [5, 28]: 10%
pest or weed control at 3 g/ha ([6]; Veronica hederifolia, post-emergence, VERHE, Halauxifen-methyl 3 g/ha, read-out: % visual injury Obs): 10%
% visual injury [6, 28]: 10%
pest or weed control at 3 g/ha [16]: 50%
pest or weed control at 3 g/ha ([7]; Viola tricolor, post-emergence, read-out: % visual injury Obs): 60%
% visual injury [7, 28]: 10%
% visual injury Obs ([17]; HORVS, Halauxifen-methyl 3 g/ha): 0%
% visual injury (crop phytotoxicity) [17, 27]: 0%
pest or weed control at 3 g/ha [18]: 10%
pest or weed control at 3 g/ha ([19]; Centaurea cyanus, post-emergence, CENCY, Halauxifen-methyl 3 g/ha, read-out: % visual injury Obs): 90%
% visual injury [19, 27]: 97%
plant injury at 3 g/ha [20]: 30%
pest or weed control at 3 g/ha ([8]; Lamium purpureum, post-emergence, read-out: % visual injury Obs): 97%
% visual injury [8, 28]: 85%
pest or weed control at 3 g/ha [21]: 80%
pest or weed control at 3 g/ha ([22]; Anthemis arvensis, post-emergence, ANTAR, Halauxifen-methyl 3 g/ha, read-out: % visual injury Obs): 50%
% visual injury [22, 27]: 40%
pest or weed control at 3 g/ha [23]: 50%
% visual injury [9, 28]: 95%
% visual injury Obs ([24]; TRZAW, Halauxifen-methyl 3 g/ha): 0%
% visual injury (crop phytotoxicity) [24, 27]: 0%
pest or weed control at 3 g/ha ([25]; Viola arvensis, post-emergence, VIOAR, Halauxifen-methyl 3 g/ha, read-out: % visual injury Obs): 10%
% visual injury [25, 27]: 5%
